Assay results taken from patent US4460508A, “5-Diazacycloalkylimidazo[1,2-c][1,3]benzodiazepines” (Ciba-Geigy Corporation, priority 1982, dated 1984).

Tested on: α-adrenergic
Assay: α-adrenergic blocking activity in vitro

CN1CCN(C2=Nc3ccccc3Cc3nccn32)CC1 [example 1, 5-(4-methyl-1-piperazinyl)-11H-imidazo[1,2-c][1,3]benzodiazepine]
α-adrenergic blocking activity: only minimal
